Data: patent publication US7582649B2, “Hydroxy alkyl substituted 1,3,8-triazaspiro[4.5]decan-4-one derivatives useful for the treatment of ORL-1 receptor mediated disorders” (Janssen Pharmaceutica, NV, priority 2002, dated 2009)
Where “and” joins values, the source holds several entries; their conditions need not be identical. Equal entries are not always repeated. Where two headings read alike, the source gives them in different places.

Columns and labels:
mu opioid receptor = mu opioid receptor (Homo sapiens, UniProt P35372); assay: Filtration binding assay: mu opioid receptor
Chain of mu opioid receptor (P35372 whole entry): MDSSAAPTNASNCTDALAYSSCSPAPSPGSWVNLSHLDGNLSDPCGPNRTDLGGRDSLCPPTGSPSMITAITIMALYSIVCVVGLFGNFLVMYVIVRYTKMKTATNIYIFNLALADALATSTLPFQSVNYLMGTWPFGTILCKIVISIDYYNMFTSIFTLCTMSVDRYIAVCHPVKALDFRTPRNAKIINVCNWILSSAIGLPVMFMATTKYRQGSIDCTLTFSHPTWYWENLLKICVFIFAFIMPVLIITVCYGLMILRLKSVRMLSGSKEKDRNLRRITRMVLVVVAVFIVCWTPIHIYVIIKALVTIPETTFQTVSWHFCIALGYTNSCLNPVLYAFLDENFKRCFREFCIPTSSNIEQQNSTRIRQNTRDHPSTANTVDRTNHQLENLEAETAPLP

kappa opioid receptor = kappa opioid receptor (Homo sapiens, UniProt P41145); assay: Filtration binding assay: kappa opioid receptor
Chain of kappa opioid receptor (P41145 whole entry): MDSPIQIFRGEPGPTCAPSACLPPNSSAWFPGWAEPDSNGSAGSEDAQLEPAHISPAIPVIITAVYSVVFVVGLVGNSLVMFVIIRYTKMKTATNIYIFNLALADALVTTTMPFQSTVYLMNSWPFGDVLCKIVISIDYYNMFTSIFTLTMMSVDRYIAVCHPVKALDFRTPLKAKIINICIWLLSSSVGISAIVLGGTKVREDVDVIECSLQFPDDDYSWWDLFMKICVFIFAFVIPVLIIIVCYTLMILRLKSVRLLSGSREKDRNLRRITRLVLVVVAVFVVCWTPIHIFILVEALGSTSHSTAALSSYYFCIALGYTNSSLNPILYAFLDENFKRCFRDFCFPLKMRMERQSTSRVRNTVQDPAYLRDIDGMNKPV

Long-Evans Hooded rats [1] = assay: Stress induced hyperthermia (SIH) in vivo assay, rectal temperature; design: species or system rat
Procedure: (§1) Male Long-Evans Hooded rats weighing 180 to 200 grams at the time of purchase were obtained from Charles River Laboratories (Raleigh, N.C.). Upon arrival, the animals were group housed four per cage in quarantine for 5 days in wire-mesh cages at an ambient temperature of 21 to 23° C. with an automated 12/12 hour light/dark cycle and ad libitum access to water and a commercial rodent chow. The rats were then transferred to a general housing room for a one-week acclimation with housing and environmental conditions, and 12/12 hour light/dark cycle conditions. Animals were fasted overnight (18 hours) prior to experiment.
[…] One hour after dosing, baseline rectal temperatures were recorded for each rat. Rats were then immediately isolated in shoebox cages with ALPHA-DRY bedding. Rectal temperatures were then recorded at 15 min, 30 min, and 45 min after isolation (i.e., 1 hr 15 min, 1 hr 30 min, and 1 hr 45 minutes after test compound or vehicle administration). All experiments were conducted during the light cycle. After completion of the behavioral portion of the study, each animal was killed via decapitation using a guillotine and trunk blood was collected in 5 mL vacutainer tube containing EDTA and placed on ice. The samples were then centrifuged at 3800 RPM for 10 minutes and plasma was removed and placed on dry ice in an Eppendorff sample tube. Plasma samples were stored at −80° C. and later used for determining ACTH, corticosterone, and glucose levels. Plasma samples were outsourced to Anilytics, Inc. for determination of plasma levels of ACTH, coricosterone, and glucose. A Mann-Whitney U t-test (one-tailed) was used for statistical analysis of behavioral data and an unpaired t-test (one-tailed) was used for analysis of plasma ACTH, corticosterone, and glucose levels.
Compound #438 was suspended in an aqueous vehicle comprised of 0.5% (w/v) methylcellulose (15 centipoises) solution.

Long-Evans Hooded rats [2] = assay: Plasma stress hormone levels (ACTH, corticosterone, glucose) after SIH; assay type: in vivo, rat; settings: p.o.
Procedure: as §1
On the day of experiment, group-housed (4/group) Long-Evans Hooded rats were divided into various treatment groups (N=8 to 32) and test compound at 0.03-3.0 mg/kg or vehicle was administered orally (p.o.) by gavage in a dose volume equivalent to 5 mL/kg. One hour after dosing, baseline rectal temperatures were recorded for each rat. Rats were then immediately isolated in shoebox cages with ALPHA-DRY bedding. Rectal temperatures were then recorded at 15 min, 30 min, and 45 min after isolation (i.e., 1 hr 15 min, 1 hr 30 min, and 1 hr 45 minutes after test compound or vehicle administration). All experiments were conducted during the light cycle. […]

Long-Evans Hooded rats [3] = settings: rat, in vivo, po; for Total Entries (EPM), % Change / Total Entries (EPM), Mean: male, Long-Evans Hooded
Long-Evans Hooded rats [4] = settings: male, rat, in vivo, po

Cc1cccc2cccc(CN3CCC4(CC3)C(=O)N(C[C@H](O)CN)CN4c3ccc(F)cc3)c12 [Compound #438, 3-(3-Amino-2-(R)-hydroxy-propyl)-1-(4-fluoro-phenyl)-8-(8-methyl-naphthalen-1-ylmethyl)-1,3,8-triaza-spiro[4.5]decan-4-one]
IC50 (mu opioid receptor): > 10 µM
IC50 (kappa opioid receptor): > 10 µM
Rectal Temp., Mean (Long-Evans Hooded rats [1]; 0.03 mg/kg p.o., 0 (Basal), 1 hr after dosing): 37.5 °C
Rectal Temp., Mean (Long-Evans Hooded rats [1]; 0.03 mg/kg p.o., 15 min after isolation): 38.7 °C
Rectal Temp., Mean (Long-Evans Hooded rats [1]; 0.03 mg/kg p.o., 30 min after isolation): 38.6 °C
Rectal Temp., Mean (Long-Evans Hooded rats [1]; 0.03 mg/kg p.o., 45 min after isolation): 38.4 °C
Rectal Temp., Mean (Long-Evans Hooded rats [1]; 0.1 mg/kg p.o., 0 (Basal), 1 hr after dosing): 37.2 °C
Rectal Temp., Mean (Long-Evans Hooded rats [1]; 0.1 mg/kg p.o., 15 min after isolation): 38.4 °C
Rectal Temp., Mean (Long-Evans Hooded rats [1]; 0.1 mg/kg p.o., 30 min after isolation): 38.5 °C
Rectal Temp., Mean (Long-Evans Hooded rats [1]; 0.1 mg/kg p.o., 45 min after isolation): 38.5 °C
Rectal Temp., Mean (Long-Evans Hooded rats [1]; 0.3 mg/kg p.o., 0 (Basal), 1 hr after dosing): 37.4 °C
Rectal Temp., Mean (Long-Evans Hooded rats [1]; 0.3 mg/kg p.o., 15 min after isolation): 38.4 °C
Rectal Temp., Mean (Long-Evans Hooded rats [1]; 0.3 mg/kg p.o., 30 min after isolation): 38.5 °C
Rectal Temp., Mean (Long-Evans Hooded rats [1]; 0.3 mg/kg p.o., 45 min after isolation): 38.3 °C
Rectal Temp., Mean (Long-Evans Hooded rats [1]; 1.0 mg/kg p.o., 0 (Basal), 1 hr after dosing): 37.1 °C
Rectal Temp., Mean (Long-Evans Hooded rats [1]; 1.0 mg/kg p.o., 15 min after isolation): 38.4 °C
Rectal Temp., Mean (Long-Evans Hooded rats [1]; 1.0 mg/kg p.o., 30 min after isolation): 38.5 °C
Rectal Temp., Mean (Long-Evans Hooded rats [1]; 1.0 mg/kg p.o., 45 min after isolation): 38.2 °C
Rectal Temp., Mean (Long-Evans Hooded rats [1]; 3.0 mg/kg p.o., 0 (Basal), 1 hr after dosing): 37.0 °C
Rectal Temp., Mean (Long-Evans Hooded rats [1]; 3.0 mg/kg p.o., 15 min after isolation): 38.2 °C
Rectal Temp., Mean (Long-Evans Hooded rats [1]; 3.0 mg/kg p.o., 30 min after isolation): 38.4 °C
Rectal Temp., Mean (Long-Evans Hooded rats [1]; 3.0 mg/kg p.o., 45 min after isolation): 38.2 °C
rectal temperature in the SIH model (Long-Evans Hooded rats [1]; p.o., at 0.03 mg/kg, 0.01 mg/kg, 0.3 mg/kg, 1.0 mg/kg and 3.0 mg/kg): attenuation of rectal temperature
changes in the plasma levels of corticosterone (Long-Evans Hooded rats [2]): not statistically significant
reduction in plasma ACTH levels (Long-Evans Hooded rats [2]; 0.3 mg/kg, P=0.0170): 25%
Total Entries (EPM), % Change (Long-Evans Hooded rats [3]; 0.03 mg/kg): 1.0%
Total Entries (EPM), Mean (Long-Evans Hooded rats [3]; 0.03 mg/kg): 102.0
Total Entries (EPM), % Change (Long-Evans Hooded rats [3]; 10 mg/kg): −6.4%
Total Entries (EPM), Mean (Long-Evans Hooded rats [3]; 10 mg/kg): 94.5
Total Entries (EPM), % Change (Long-Evans Hooded rats [3]; 30 mg/kg): −14.6%
Total Entries (EPM), Mean (Long-Evans Hooded rats [3]; 30 mg/kg): 86.3
% Open Arm Entries (EPM), % Change (Long-Evans Hooded rats [3]; 0.03 mg/kg): −11.1%
% Open Arm Entries (EPM), Mean (Long-Evans Hooded rats [3]; 0.03 mg/kg): 5.14%
% Open Arm Time (EPM), % Change (Long-Evans Hooded rats [3]; 0.03 mg/kg): −18.8%
% Open Arm Time (EPM), Mean (Long-Evans Hooded rats [3]; 0.03 mg/kg): 6.67%
% Open Arm Entries (EPM), % Change (Long-Evans Hooded rats [3]; 0.1 mg/kg): 34.4% and 40.4%
% Open Arm Entries (EPM), Mean (Long-Evans Hooded rats [3]; 0.1 mg/kg): 7.77% and 9.17%
% Open Arm Time (EPM), Mean (Long-Evans Hooded rats [3]; 0.1 mg/kg): 12.1% and 17.2%
% Open Arm Entries (EPM), % Change (Long-Evans Hooded rats [3]; 0.3 mg/kg): 54.8% and 80.7%
% Open Arm Entries (EPM), Mean (Long-Evans Hooded rats [3]; 0.3 mg/kg): 8.95% and 11.8%
% Open Arm Time (EPM), Mean (Long-Evans Hooded rats [3]; 0.3 mg/kg): 13.8% and 21.8%
% Open Arm Entries (EPM), % Change (Long-Evans Hooded rats [3]; 1 mg/kg): 72.1% and 46.6%
% Open Arm Entries (EPM), Mean (Long-Evans Hooded rats [3]; 1 mg/kg): 9.95% and 9.57%
% Open Arm Time (EPM), % Change (Long-Evans Hooded rats [3]; 1 mg/kg): 80.3% and 89.7%
% Open Arm Time (EPM), Mean (Long-Evans Hooded rats [3]; 1 mg/kg): 14.8% and 15.1%
% Open Arm Entries (EPM), % Change (Long-Evans Hooded rats [3]; 3 mg/kg): 44.3% and 37.8%
% Open Arm Entries (EPM), Mean (Long-Evans Hooded rats [3]; 3 mg/kg): 8.34% and 9.0%
% Open Arm Time (EPM), Mean (Long-Evans Hooded rats [3]; 3 mg/kg): 12.4% and 16.9%
% Open Arm Entries (EPM), % Change (Long-Evans Hooded rats [3]; 10 mg/kg): 11.1%
% Open Arm Entries (EPM), Mean (Long-Evans Hooded rats [3]; 10 mg/kg): 6.4%
% Open Arm Time (EPM), % Change (Long-Evans Hooded rats [3]; 10 mg/kg): 0.9%
% Open Arm Time (EPM), Mean (Long-Evans Hooded rats [3]; 10 mg/kg): 8.14%
% Open Arm Entries (EPM), % Change (Long-Evans Hooded rats [3]; 30 mg/kg): 15.1%
% Open Arm Entries (EPM), Mean (Long-Evans Hooded rats [3]; 30 mg/kg): 6.65%
% Open Arm Time (EPM), % Change (Long-Evans Hooded rats [3]; 30 mg/kg): −60.9%
% Open Arm Time (EPM), Mean (Long-Evans Hooded rats [3]; 30 mg/kg): 3.21%
Horizontal Activity (SMA), % Change (Long-Evans Hooded rats [4]; 0.03 mg/kg): 9.9%
Horizontal Activity (SMA), Mean (Long-Evans Hooded rats [4]; 0.03 mg/kg): 3565
Vertical Movement (SMA), % Change (Long-Evans Hooded rats [4]; 0.03 mg/kg): 12.5%
Vertical Movement (SMA), Mean (Long-Evans Hooded rats [4]; 0.03 mg/kg): 54.8
Horizontal Activity (SMA), % Change (Long-Evans Hooded rats [4]; 10 mg/kg): −4.0%
Horizontal Activity (SMA), Mean (Long-Evans Hooded rats [4]; 10 mg/kg): 3115
Vertical Movement (SMA), % Change (Long-Evans Hooded rats [4]; 10 mg/kg): 11.9%
Vertical Movement (SMA), Mean (Long-Evans Hooded rats [4]; 10 mg/kg): 54.5
Horizontal Activity (SMA), % Change (Long-Evans Hooded rats [4]; 30 mg/kg): −15.8%
Horizontal Activity (SMA), Mean (Long-Evans Hooded rats [4]; 30 mg/kg): 2730
Vertical Movement (SMA), % Change (Long-Evans Hooded rats [4]; 30 mg/kg): −7.0%
Vertical Movement (SMA), Mean (Long-Evans Hooded rats [4]; 30 mg/kg): 45.3
